Patent publication US10947274B1 (priority 2018, dated 2021)
Where a SMILES comes first, the peptide text is derived from it. Bridges are numbered along the chain shown (N, C = ends). [ ]: non-standard residue; d: D form. Sec = N[C@@H](C[SeH])C(=O)O

Key:
rat α9α10 nAChR = rat α9α10 nAChR (Rattus norvegicus, UniProt P43144+Q9JLB5); assay: cell-based
α3β4 nAChR = α3β4 nAChR (Rattus norvegicus, UniProt P04757+P12392); conditions: cited from earlier work
Chain of α3β4 nAChR (P04757 26-499 limits assumed): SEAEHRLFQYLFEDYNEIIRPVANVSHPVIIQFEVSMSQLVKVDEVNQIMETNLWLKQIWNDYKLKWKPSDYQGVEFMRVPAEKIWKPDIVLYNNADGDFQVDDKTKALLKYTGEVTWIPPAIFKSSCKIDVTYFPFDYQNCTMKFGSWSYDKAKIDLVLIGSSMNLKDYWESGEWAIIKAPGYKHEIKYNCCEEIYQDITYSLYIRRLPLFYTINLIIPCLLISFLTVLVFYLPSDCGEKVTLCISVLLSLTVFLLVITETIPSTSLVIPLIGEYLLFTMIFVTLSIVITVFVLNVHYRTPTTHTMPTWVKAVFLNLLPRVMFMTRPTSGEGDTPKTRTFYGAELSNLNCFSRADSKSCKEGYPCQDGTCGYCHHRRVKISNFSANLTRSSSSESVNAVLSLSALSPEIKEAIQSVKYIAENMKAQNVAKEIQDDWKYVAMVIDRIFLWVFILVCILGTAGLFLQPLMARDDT
Chain of α3β4 nAChR (P12392 21-495 limits assumed): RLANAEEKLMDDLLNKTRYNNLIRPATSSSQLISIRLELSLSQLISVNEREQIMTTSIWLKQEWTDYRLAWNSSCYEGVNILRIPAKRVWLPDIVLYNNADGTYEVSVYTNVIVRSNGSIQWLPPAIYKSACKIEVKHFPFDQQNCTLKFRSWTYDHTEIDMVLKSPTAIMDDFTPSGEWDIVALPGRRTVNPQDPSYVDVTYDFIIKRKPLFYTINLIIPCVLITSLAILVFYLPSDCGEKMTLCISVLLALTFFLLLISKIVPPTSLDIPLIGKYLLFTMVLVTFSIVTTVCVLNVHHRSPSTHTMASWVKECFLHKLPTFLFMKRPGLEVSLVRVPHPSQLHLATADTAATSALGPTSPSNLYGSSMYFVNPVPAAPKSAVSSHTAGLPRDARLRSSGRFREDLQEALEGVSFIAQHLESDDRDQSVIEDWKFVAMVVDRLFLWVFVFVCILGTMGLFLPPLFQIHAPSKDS

Chain of rat α9α10 nAChR (P43144 26-479 limits assumed): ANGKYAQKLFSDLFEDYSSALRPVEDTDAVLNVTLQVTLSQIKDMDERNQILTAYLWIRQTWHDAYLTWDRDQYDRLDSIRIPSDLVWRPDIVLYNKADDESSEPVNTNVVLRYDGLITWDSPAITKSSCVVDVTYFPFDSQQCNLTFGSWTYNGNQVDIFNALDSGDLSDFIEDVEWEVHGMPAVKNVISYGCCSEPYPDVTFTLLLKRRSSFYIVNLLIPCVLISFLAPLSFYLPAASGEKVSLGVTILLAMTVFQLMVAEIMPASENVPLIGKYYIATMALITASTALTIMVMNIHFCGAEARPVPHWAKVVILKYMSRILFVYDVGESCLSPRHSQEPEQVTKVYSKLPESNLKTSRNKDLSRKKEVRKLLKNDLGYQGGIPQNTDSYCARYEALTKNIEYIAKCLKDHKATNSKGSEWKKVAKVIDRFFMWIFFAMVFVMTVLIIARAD
Chain of rat α9α10 nAChR (Q9JLB5 25-447 limits assumed): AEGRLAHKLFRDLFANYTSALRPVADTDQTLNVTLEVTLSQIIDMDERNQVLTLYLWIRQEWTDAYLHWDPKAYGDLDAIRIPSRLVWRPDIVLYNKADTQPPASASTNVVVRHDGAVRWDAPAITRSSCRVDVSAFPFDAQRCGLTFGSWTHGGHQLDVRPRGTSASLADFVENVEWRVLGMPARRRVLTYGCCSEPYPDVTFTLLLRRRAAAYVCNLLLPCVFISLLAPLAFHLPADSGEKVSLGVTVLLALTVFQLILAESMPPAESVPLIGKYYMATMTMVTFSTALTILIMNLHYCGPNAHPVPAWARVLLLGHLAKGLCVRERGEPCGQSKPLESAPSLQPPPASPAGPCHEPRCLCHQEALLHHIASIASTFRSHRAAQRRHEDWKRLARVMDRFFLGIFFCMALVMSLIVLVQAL

Row | Compound | % block (rat α9α10 nAChR) | IC50 (rat α9α10 nAChR) [µM] | IC50 (α3β4 nAChR) [µM]
1 | N=C(N)NCCC[C@H](NC(=O)[C@@H]1C[Se][Se]C[C@@H]2NC(=O)[C@@H](NC(=O)CN)CSSC[C@H](NC(=O)[C@H](CCCNC(=N)N)NC(=O)[C@@H]3CCCN3C(=O)[C@H](CC(=O)O)NC(=O)[C@H](CO)NC2=O)C(=O)N[C@@H](CCCNC(=N)N)C(=O)N[C@@H](Cc2ccc(O)cc2)C(=O)N[C@@H](CCCNC(=N)N)C(=O)N1)C(=O)O [[C3 Sec;C12Sec] RgIA] (H-GC[Sec]SDPRCRYR[Sec]R-OH; disulfide 2-8; diselenide 3-12) | <10 nM (81.9 ± 1.8% block at 10 nM) | < 0.01 | –
2 | α-conotoxin AuIB | – | – | 3.1 ± 1
